Source: patent US20140065223A1, “PERFLUORINATED COMPOUNDS FOR THE NON-VIRAL TRANSFER OF NUCLEIC ACIDS” (priority 2011, published 2014)

System: Cells of line HEK 293
Experiment: Detection of absorption into the cell: transfection of HEK 293 cells, microscopy / confocal microscopy of rhodamine coloration
Assay type: cell-based
Method: To follow the path of the perfluorinated nucleic acids into the cell, the following construct with rhodamine linking was used: The compound was first dissolved in tetrahydrofuran (THF), and this solution was subsequently titrated in isopropanol. […] Cells of line HEK 293 were used as cell culture Transfection was performed one day after cell enlargement. As a control, a transfection was performed with pure rhodamine particles of equivalent rhodamine concentration to test the perfluorinated nucleic acids. […] One explanation of this is possible that the rhodamine is bound to the PFC particle in the perfluorinated nucleic acids and sinks to the bottom as a small particle, whereas the dye is completely dissolved in the medium with pure rhodamine. […] The endosomes and lysosomes filled with perfluorinated nucleic acids were detected throughout the cell cytoplasm.

rhodamine [pure rhodamine]
coloration of the cells (20 minutes after transfection): no defined coloration could be seen
coloration of the cells (24 hours after transfection): substantially weaker and diffuse in comparison on the cell surface instead of in the cytoplasm and granular
